Biological target: T1, rhuman cathepsin K (Homo sapiens, UniProt P43235)
T1 sequence (P43235 115-329): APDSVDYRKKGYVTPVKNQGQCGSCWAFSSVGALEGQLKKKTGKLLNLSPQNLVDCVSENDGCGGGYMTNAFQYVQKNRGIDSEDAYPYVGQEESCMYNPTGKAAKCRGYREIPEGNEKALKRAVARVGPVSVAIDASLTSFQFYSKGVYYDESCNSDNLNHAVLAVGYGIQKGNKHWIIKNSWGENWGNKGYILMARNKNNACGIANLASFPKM
Experiment: Assay for identification of Cathepsin K inhibitors (QFRET, cleavage of Z-Phe-Arg-AMC)
Assay type: biochemical
Settings: 0.5 nM rhuman cathepsin K, Z-Phe-Arg-AMC substrate, 30 min pre-incubation, 1 h incubation at room temperature; mean of two separate occasions; read-out: CatK FRET Mean pIC50 (converted)
Protocol: 0.5 nM [final] rhuman cathepsin K in phosphate buffer was added to a 384-well black microtitre plate containing investigative compounds. The enzyme and compound were pre-incubated at room temperature for 30 minutes before the addition of […] [final] Z-Phe-Arg-AMC synthetic substrate in phosphate buffer. The plates were covered and incubated for 1 h at room temperature, protected from light. Following the incubation the reaction was stopped with 7.5% [final]acetic acid. Relative fluorescence was measured using the Ultra plate reader at a wavelength of 360 nm excitation and 425 nm emission.
Data was corrected for background fluorescence (minimum controls without enzyme).

N#CC1(NC(=O)[C@@H]2CCCC[C@H]2C(=O)N2CCc3[nH]c4c(OCCN5CCCC5)cccc4c3C2)CC1 [Example 38, (1R,2R)-N-(1-cyanocyclopropyl)-2-(6-(2-(pyrrolidin-1-yl)ethoxy)-2,3,4,5-tetrahydro-1H-pyrido[4,3-b]indole-2-carbonyl)cyclohexanecarboxamide]
IC50: 1.64 nM

N#Cc1cccc2c3c([nH]c12)CCN(C(=O)[C@@H]1CCCC[C@H]1C(=O)NC1(C#N)CC1)C3 [Example 20, (1R,2R)-N-(1-cyanocyclopropyl)-2-[(6-cyano-1,3,4,5-tetrahydro-2H-pyrido[4,3-b]indol-2-yl)carbonyl]cyclohexanecarboxamide]
IC50: 1.91 nM

Cn1c2c(c3cccnc31)CN(C(=O)[C@@H]1CCCC[C@H]1C(=O)NC1(C#N)CC1)CC2 [Example 21, (1R,2R)-N-(1-cyanocyclopropyl)-2-[(9-methyl-5,7,8,9-tetrahydro-6H-pyrrolo[2,3-b:4,5-c′]dipyridin-6-yl)carbonyl]cyclohexanecarboxamide]
IC50: 1.46 nM

CN(C)Cc1ccc2[nH]c3c(c2c1)CN(C(=O)[C@@H]1CCCC[C@H]1C(=O)NC1(C#N)CC1)CC3 [Example 15, (1R,2R)-N-(1-cyanocyclopropyl)-2-({8-[(dimethylamino)methyl]-1,3,4,5-tetrahydro-2H-pyrido[4,3-b]indol-2-yl}carbonyl)cyclohexanecarboxamide]
IC50: 8.91 nM

N#CC1(NC(=O)[C@@H]2CCCC[C@H]2C(=O)N2CCc3[nH]c4c(OCCN5CCOCC5)cccc4c3C2)CC1 [Example 37, (1R,2R)-N-(1-cyanocyclopropyl)-2-(6-(2-morpholinoethoxy)-2,3,4,5-tetrahydro-1H-pyrido[4,3-b]indole-2-carbonyl)cyclohexanecarboxamide]
IC50: 3.2 nM

N#CC1(NC(=O)[C@@H]2CCCC[C@H]2C(=O)N2CCc3[nH]c4c(OCCN5CCCCC5)cccc4c3C2)CC1 [Example 39, (1R,2R)-N-(1-cyanocyclopropyl)-2-(6-(2-(piperidin-1-yl)ethoxy)-2,3,4,5-tetrahydro-1H-pyrido[4,3-b]indole-2-carbonyl)cyclohexanecarboxamide]
IC50: 0.728 nM

CS(=O)(=O)c1cccc2c3c([nH]c12)CCN(C(=O)[C@@H]1CCCC[C@H]1C(=O)NC1(C#N)CC1)C3 [Example 31, (1R,2R)-N-(1-cyanocyclopropyl)-2-{[6-(methylsulfonyl)-1,3,4,5-tetrahydro-2H-pyrido[4,3-b]indol-2-yl]carbonyl}cyclohexanecarboxamide]
IC50: 17.4 nM

N#CC1(NC(=O)[C@@H]2CCCC[C@H]2C(=O)N2CCc3[nH]c4c(C(F)(F)F)cccc4c3C2)CC1 [Example 30, (1R,2R)-N-(1-cyanocyclopropyl)-2-{[6-(trifluoromethyl)-1,3,4,5-tetrahydro-2H-pyrido[4,3-b]indol-2-yl]carbonyl}cyclohexanecarboxamide]
IC50: 5.5 nM

CCCOc1cccc2c3c([nH]c12)CCN(C(=O)[C@@H]1CCCC[C@H]1C(=O)NC1(C#N)CC1)C3 [Example 34, (1R,2R)-N-(1-cyanocyclopropyl)-2-[(6-propoxy-1,3,4,5-tetrahydro-2H-pyrido[4,3-b]indol-2-yl)carbonyl]cyclohexanecarboxamide]
IC50: 0.486 nM

COc1ccc2[nH]c3c(c2c1)CN(C(=O)[C@@H]1CCCC[C@H]1C(=O)NC1(C#N)CC1)CC3 [Example 8, (1R,2R)-N-(1-cyanocyclopropyl)-2-[(8-methoxy-1,3,4,5-tetrahydro-2H-pyrido[4,3-b]indol-2-yl)carbonyl]cyclohexanecarboxamide]
IC50: 40.7 nM

CC(C)c1ccc2[nH]c3c(c2c1)CN(C(=O)[C@@H]1CCCC[C@H]1C(=O)NC1(C#N)CC1)CC3 [Example 11, (1R,2R)-N-(1-cyanocyclopropyl)-2-[(8-isopropyl-1,3,4,5-tetrahydro-2H-pyrido[4,3-b]indol-2-yl)carbonyl]cyclohexanecarboxamide]
IC50: 3.67 nM

N#CC1(NC(=O)[C@@H]2CCCC[C@H]2C(=O)N2CCc3[nH]c4c(OCc5ccccc5)cccc4c3C2)CC1 [Example 32, (1R,2R)-2-{[6-(benzyloxy)-1,3,4,5-tetrahydro-2H-pyrido[4,3-b]indol-2-yl]carbonyl}-N-(1-cyanocyclopropyl)cyclohexanecarboxamide]
IC50: 1 nM

COc1cccc2c3c([nH]c12)CCN(C(=O)[C@@H]1CCCC[C@H]1C(=O)NC1(C#N)CC1)C3 [Example 17, (1R,2R)-N-(1-cyanocyclopropyl)-2-[(6-methoxy-1,3,4,5-tetrahydro-2H-pyrido[4,3-b]indol-2-yl)carbonyl]cyclohexanecarboxamide]
IC50: 0.658 nM

Source: patent publication US8008279B2, “Compound—827” (AstraZeneca AB, priority 2007, dated 2011)
